What was measured:
[1] = tested on: NCI-H1876 (Small Cell Lung Carcinoma); experiment: combination Emax (second highest fraction inhibited in the dose matrix, 72 h); higher = more inhibition; extreme values may be limits of the assay
Outline: (§1)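 Cell lines in DMEM/F12 or RPMI with 10% FBS were plated in 1536-well plates, held 24 hours at 37°C, 5% CO2, then given two-drug dose matrices for 72 hours (DMSO typically 0.2%). Viability was read by CellTiter-Glo 2.0 luminescence and scaled as inhibition from 0 (vehicle wells) to 1 (blank wells). Combination Emax is the second-highest inhibition in the matrix; Bliss excess is observed combination effect minus expected EA + EB − EA·EB, EA and EB being single-agent effects.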

[2] = tested on: WM35 (Melanoma); experiment: as above
Outline: as §1

[3] = tested on: P30-OHK (B-Lymphoblastic Leukemia); experiment: as above
Outline: as §1

[4] = tested on: AM-38 (Glioblastoma); experiment: as above
Outline: as §1

[5] = tested on: RCC-JW (Kidney Carcinoma); experiment: as above
Outline: as §1

[6] = tested on: Raji (Burkitt's Lymphoma); experiment: as above
Outline: as §1

[7] = tested on: MDA-MB-415 (Breast Carcinoma); experiment: as above
Outline: as §1

[8] = tested on: LCLC-103H (Non-Small Cell Lung Carcinoma); experiment: as above
Outline: as §1

[9] = tested on: SNU-C2B (Colorectal Carcinoma); experiment: as above
Outline: as §1

[10] = tested on: PA-TU-8988T (Pancreatic Carcinoma); experiment: as above
Outline: as §1

[11] = tested on: UACC-257 (Melanoma); experiment: as above
Outline: as §1

[12] = tested on: NCI-H1963 (Small Cell Lung Carcinoma); experiment: as above
Outline: as §1

[13] = tested on: ZR-75-30 (Breast Carcinoma); experiment: as above
Outline: as §1

[14] = tested on: MM1S (Plasma Cell Myeloma); experiment: as above
Outline: as §1

[15] = tested on: NAMALWA (Burkitt's Lymphoma); experiment: as above
Outline: as §1

[16] = tested on: NB1 (Neuroblastoma); experiment: as above
Outline: as §1

[17] = tested on: SNU-423 (Hepatocellular Carcinoma); experiment: as above
Outline: as §1

[18] = tested on: MDA-MB-415 (Breast Carcinoma); experiment: Bliss excess, mean over the matrix (fraction); higher = more synergy
Outline: as §1

[19] = tested on: MOLT-13 (T-Lymphoblastic Leukemia); experiment: as above
Outline: as §1

[20] = tested on: BHT-101 (Thyroid Gland Carcinoma); experiment: as above
Outline: as §1
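Throughout, for Bliss excess, mean over the matrix: after 72 h of two-drug dosing.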

SMILES | combination Emax [1] | combination Emax [2] | combination Emax [3] | combination Emax [4] | combination Emax [5] | combination Emax [6] | combination Emax [7] | combination Emax [8] | combination Emax [9] | combination Emax [10] | combination Emax [11] | combination Emax [12] | combination Emax [13] | combination Emax [14] | combination Emax [15] | combination Emax [16] | combination Emax [17] | Bliss excess [18] | Bliss excess [19] | Bliss excess [20]
CN(C)CCCOc1ccc(-c2ccc3ncc4c(c3c2)n(C2CCOCC2)c(=O)n4C)cn1 [AZD0156] + C=CCn1c(=O)c2cnc(Nc3ccc(N4CCN(C)CC4)cc3)nc2n1-c1cccc(C(C)(C)O)n1 [AZD1775] (first compound max 1 µM, partner max 1 µM) | 0.982 | 0.348 | 0.678 | 0.437 | 0.221 | 0.695 | 0.177 | 0.519 | 0.55 | 0.718 | 0.14 | 0.87 | 0.156 | 0.732 | 0.974 | 0.936 | 0.506 | -0.0615 | 0.0227 | -0.0209
CN(C)CCCOc1ccc(-c2ccc3ncc4c(c3c2)n(C2CCOCC2)c(=O)n4C)cn1 [AZD0156] + CCN(CCO)CCCOc1ccc2c(Nc3cc(CC(=O)Nc4cccc(F)c4)[nH]n3)ncnc2c1 [AZD2811] (first compound max 1 µM, 7x7, partner max 1 µM) | 0.853 | 0.119 | 0.834 | 0.342 | 0.093 | 0.165 | 0.206 | 0.29 | 0.113 | 0.219 | 0.119 | 0.857 | 0.135 | 0.34 | 0.402 | 0.641 | 0.194 | -0.0087 | 0.0392 | -0.0273
CN(C)CCCOc1ccc(-c2ccc3ncc4c(c3c2)n(C2CCOCC2)c(=O)n4C)cn1 [AZD0156] + C[C@@H]1COCCN1C2=NC(=NC(=C2)C3(CC3)[S@](=N)(=O)C)C4=C5C=CNC5=NC=C4 [AZD6738] (first compound max 1 µM, 7x7, partner max 10 µM) | 0.938 | 0.771 | 0.877 | 0.868 | 0.597 | 0.87 | 0.395 | 0.55 | 0.681 | 0.476 | 0.145 | 0.804 | 0.189 | 0.698 | 0.96 | 0.933 | 0.495 | -0.007 | 0.0472 | 0.0222
CN(C)CCCOc1ccc(-c2ccc3ncc4c(c3c2)n(C2CCOCC2)c(=O)n4C)cn1 [AZD0156] + O=C(c1cc(Cc2n[nH]c(=O)c3ccccc23)ccc1F)N1CCN(C(=O)C2CC2)CC1 [Olaparib] (first compound max 3 µM, partner max 3 µM) | 0.807 | 0.201 | 0.668 | 0.45 | 0.468 | 0.482 | 0.325 | 0.289 | 0.239 | 0.211 | 0.21 |  | 0.283 | 0.881 | 0.487 | 0.357 | 0.293 | 0.0017 | 0.139 | 0.0766
C=CCn1c(=O)c2cnc(Nc3ccc(N4CCN(C)CC4)cc3)nc2n1-c1cccc(C(C)(C)O)n1 [AZD1775] + C1CN(CCC1(C(=O)N[C@@H](CCO)C2=CC=C(C=C2)Cl)N)C3=NC=NC4=C3C=CN4 [Capivasertib] (first compound max 3 µM, partner max 3 µM) | 0.956 | 0.681 | 0.947 | 0.702 | 0.619 | 0.977 | 0.764 | 0.626 | 0.702 | 0.851 | 0.455 |  | 0.441 | 1 | 0.981 | 0.69 | 0.659 | 0.0043 | 0.0139 | 0.0304
C=CCn1c(=O)c2cnc(Nc3ccc(N4CCN(C)CC4)cc3)nc2n1-c1cccc(C(C)(C)O)n1 [AZD1775] + C[C@@H]1COCCN1C2=NC(=NC(=C2)C3(CC3)[S@](=N)(=O)C)C4=C5C=CNC5=NC=C4 [AZD6738] (first compound max 1 µM, partner max 10 µM) | 0.987 | 0.659 | 0.943 | 0.818 | 0.725 | 0.937 | 0.595 | 0.752 | 0.726 | 0.833 | 0.344 | 1 | 0.296 |  | 0.961 | 0.944 | 0.747 | 0.0112 | 0.0735 | 0.0094
C=CCn1c(=O)c2cnc(Nc3ccc(N4CCN(C)CC4)cc3)nc2n1-c1cccc(C(C)(C)O)n1 [AZD1775] + O=C(c1cc(Cc2n[nH]c(=O)c3ccccc23)ccc1F)N1CCN(C(=O)C2CC2)CC1 [Olaparib] (first compound max 1 µM, partner max 10 µM) | 0.968 | 0.303 | 0.748 | 0.496 | 0.326 | 0.74 | 0.229 | 0.546 | 0.601 | 0.8 | 0.166 | 0.845 | 0.213 | 0.779 | 0.96 | 0.819 | 0.731 | -0.0482 | 0.021 | -0.0568
CN(CCO)CC[C@H](CSc1ccccc1)Nc1ccc(S(=O)(=O)NC(=O)c2ccc(N3CCC([C@@H](O)c4ccccc4-c4ccc(Cl)cc4)CC3)cc2)cc1S(=O)(=O)C(F)(F)F [AZD4320] + C1CN(CCC1(C(=O)N[C@@H](CCO)C2=CC=C(C=C2)Cl)N)C3=NC=NC4=C3C=CN4 [Capivasertib] (first compound max 1 µM, 7x7, partner max 3 µM) | 0.955 | 0.215 | 0.992 | 0.561 | 0.615 | 0.177 | 0.968 | 0.238 | 0.201 | 0.22 | 0.1 | 1 | 0.307 | 1 |  | 0.689 | 0.406 | -0.0284 | -0.0371 | 0.0092
COc1nnc2ccc(N3CCC(c4ccc(OCCN5CCN(C)C(=O)[C@H]5C)cc4)CC3)nn12 [AZD5153] + CN(CC[C@H](CSC1=CC=CC=C1)NC2=C(C=C(C=C2)S(=O)(=O)NC(=O)C3=CC=C(C=C3)N4CCC(CC4)[C@H](C5=CC=CC=C5C6=CC=C(C=C6)Cl)O)S(=O)(=O)C(F)(F)F)CCO [AZD4320] (first compound max 1 µM, 7x7, partner max 1 µM) | 0.977 | 0.718 | 1 | 0.949 |  | 0.579 |  |  | 0.55 | 0.695 | 0.413 | 1 |  | 1 |  | 0.248 |  |  | 0.0376 | 0.0367
C[C@@H]1COCCN1c1cc(C2([S@](C)(=N)=O)CC2)nc(-c2ccnc3[nH]ccc23)n1 [AZD6738] + O=C(c1cc(Cc2n[nH]c(=O)c3ccccc23)ccc1F)N1CCN(C(=O)C2CC2)CC1 [Olaparib] (first compound max 10 µM, 7x7, partner max 10 µM) | 0.945 | 0.547 |  | 0.747 | 0.552 | 0.855 | 0.446 | 0.504 | 0.69 | 0.448 | 0.142 | 0.804 | 0.213 | 0.642 | 0.938 | 0.772 | 0.576 | 0.0239 | 0.0645 | 0.016
CC(=O)c1c(C)c2cnc(Nc3ccc(N4CCNCC4)cn3)nc2n(C2CCCC2)c1=O [Palbociclib] + CN(CC[C@H](CSC1=CC=CC=C1)NC2=C(C=C(C=C2)S(=O)(=O)NC(=O)C3=CC=C(C=C3)N4CCC(CC4)[C@H](C5=CC=CC=C5C6=CC=C(C=C6)Cl)O)S(=O)(=O)C(F)(F)F)CCO [AZD4320] (first compound max 10 µM, 7x7, partner max 1 µM) | 0.926 | 0.229 | 0.967 | 0.872 |  | 0.455 |  |  | 0.599 | 0.33 | 0.183 | 1 |  | 0.964 |  | 0.597 |  |  | -0.0216 | 0.0064
CCc1c2c(nc3ccc(O)cc13)-c1cc3c(c(=O)n1C2)COC(=O)[C@]3(O)CC [SN-38] + O=C(c1cc(Cc2n[nH]c(=O)c3ccccc23)ccc1F)N1CCN(C(=O)C2CC2)CC1 [Olaparib] (first compound max 0.3 µM, 7x7, partner max 10 µM) |  | 0.448 | 0.99 | 0.882 | 0.616 | 0.956 | 0.321 | 0.54 | 0.478 | 0.604 | 0.343 | 0.854 | 0.348 |  | 0.986 |  | 0.495 | 0.026 | 0.0811 | 
C[C@@H](c1ccc2nccn2c1)n1nnc2ncc(-c3cnn(C)c3)nc21 [Savolitinib] + CN(CC[C@H](CSC1=CC=CC=C1)NC2=C(C=C(C=C2)S(=O)(=O)NC(=O)C3=CC=C(C=C3)N4CCC(CC4)[C@H](C5=CC=CC=C5C6=CC=C(C=C6)Cl)O)S(=O)(=O)C(F)(F)F)CCO [AZD4320] (first compound max 1 µM, 7x7, partner max 1 µM) | 0.797 | 0.251 | 0.948 | 0.613 |  | 0.173 |  |  | 0.212 | 0.191 | 0.411 | 1 |  | 0.974 |  | 0.159 |  |  | -0.0166 | -0.0327

From the supplement of paper PMC11061612
